Experiments:
[1] = test system: CD8+; test: RT-qPCR of CD8+ expression in anterior kidney of fish fed supplemented diets; format: in vivo, rainbow trout; conditions: diet 15 days
Experimental: (§1) We compared several aquaculture diets suitable for use in commercial aquaculture. The standard diet was […] commercially available from Salmones […]., Los Angeles, Chile. […] Each diet was administered to each of three (3) cages for 15 days. […] We extracted total RNA from each sample, and then quantified the expression of IL-12 and CD8^+ using real-time quantitative PCR, according to the standardized protocols of the Aquatic Organisms Biotechnology Lab of the Universidad Austral de Chile.

[2] = test system: IL-12; test: RT-qPCR of IL-12 expression in anterior kidney of fish fed supplemented diets; format: in vivo, rainbow trout; conditions: diet 15 days; NC 0.5 kg/ton, AP 1 kg/ton of feed
Experimental: as §1

[3] = test system: Piscirickettsia salmonis strain type LF-89; format: cell-based

Row | Compound | CD8+ expression in anterior kidney compared to control group ([1]; NC 0.5 kg/ton, AP 1 kg/ton of feed) | stimulation of the immune activity markers compared to control ([1]; in vivo pilot test) | IL-12 expression in anterior kidney compared to control group [2] | inhibitory effect on bacterial growth ([3]; at the analyzed concentrations (0.98 to 500)) | mean inhibition in bacterial growth ([3]; 64, 32 and 16 μg/mL) [fold]
1 | C=C1CC[C@@H]2[C@](C)(CO)[C@H](O)CC[C@@]2(C)[C@@H]1C/C=C1/C(=O)OC[C@H]1O [AP, andrographolide] | increase the expression of CD8+ | 2.0 | depress the expression of IL-12 | no significant differences in the inhibitory effect | –
2 | CS(=O)(=O)c1ccc([C@@H](O)[C@@H](CF)NC(=O)C(Cl)Cl)cc1 [florfenicol] | – | – | – | – | 5

— patent publication US10967035B1, “Aquaculture feed additive” (HP Ingredients Corp., priority 2020, dated 2021)
